Results reported in patent publication US6028102A, “Anticonvulsant drugs and pharmaceutical compositions thereof” (priority 1998, dated 2000).
Like-named read-outs stand apart in the source and are kept apart here. Peptide text beside a SMILES is read from it. * marks the point of attachment. Cbz = O=C(OCc1ccccc1)*

Assays:
[1] = mice; Freed, 1985; cited from earlier work
[2] = Screening of anticonvulsant activity; type: in vivo, mice; conditions: for anticonvulsant activity: ip administration (300 mg) to mice; for anticonvulsant activity in words: overall finding of the study
Method: Screening of Anticonvulsant Activity
Compounds I-XI were screened in carworth farm #1 mice (ip--in a volume of 0.01 mL/g of body weight) and sprague-Dawley rats (po--in a volume of 0.004 mL/g of body weight) for their anticonvulsant activity and neurotoxicity by the NIH epilepsy Branch [Porter et al, 1984]. The screening procedure involved the following:
1) the maximal electroshock (MES) test, which measures seizure spread; 2) the subcutaneous pentylenetetrazol test (sc Met test) which measures seizure threshold; and 3) the rotored ataxia test which assesses neurotoxicity.
Applicants therefore decided to derivatize glycinamide and the above dipeptides by synthesizing their N-acetyl and N'-benzyl derivatives (compounds IV-VIII). […] Therefore, this compound was further analyzed quantitatively and its ED50 data and protective indices in comparison to phthaloyl glycinamide and valproyl glycinamide--TV 1901 [17] are presented in Table 2. As a consequence of their anticonvulsant activity, the pharmacokinetics of compounds VII and IX were investigated following iv administration (400 mg) to six dogs, and the mean plasma levels of compounds VII and IX are presented in FIGS. 1 and 2, respectively.

[3] = dogs, iv, mean, Table 3, cited from earlier work; for CL / MRT / Vss / Vβ / t1/2: data from Salach et al 1994, Hadad and Bialer 1995
[4] = ip, mice, cited from earlier work; for sc Met, ED50: data from Salach et al (1994), Hadad and Bialer (1995)
[5] = mice and rats / rodents; cited from earlier work
[6] = ip, mice; data from Salach et al (1994), Hadad and Bialer (1995); cited from earlier work
[7] = ip, mice; data from Salach et al (1994), Hadad and Bialer (1995); cited from earlier work; remark: listed apart in the source
[8] = mice; Kohn et al 1988, 1990, 1991; Conley and Kohn, 1987; cited from earlier work
[9] = in vivo, cited from earlier work
[10] = electroshock, metrazole and homocysteine; Freed et al, 1979; cited from earlier work

CN(C)CC(=O)O [dimethylglycine]
antagonism of strychnine-induced seizures [1]: antagonized

NCCCC(=O)NCC(N)=O [III, Gaboylglycinamide]
anticonvulsant activity [2]: did not show anticonvulsant activity

NC(=O)CNC(=O)CNC(=O)OCc1ccccc1 [XI, N-Benzyloxycarbonyl Glycylglycinamide] (Cbz-Gly-Gly-NH2)
anticonvulsant activity in words [2]: inactive as anticonvulsant

CCCC(CCC)C(=O)NCC(N)=O [valproyl glycinamide, N-valproyl glycinamide]
CL [3]: 3 ± 0.8 L/h
MRT [3]: 4.6 ± 0.7 h
Vss [3]: 12 ± 3 L
Vβ [3]: 11 ± 3 L
t1/2 [3]: 2.7 ± 0.5 h
PI, sc Met (Protective index, ratio of TD50 to ED50) ([4]; data from Hadad and Bialer (1995)): 2.9
sc Met, ED50 [4]: 127 mg/kg
anticonvulsant activity in words [5]: good anticonvulsant activity in both mice and rats
MES, ED50 [6]: 152 mg/kg
PI, MES (Protective index, ratio of TD50 to ED50) [6]: 2.4

CC(=O)NCC(=O)NCC(N)=O [compound VI, N-Acetylglycylglycinamide]
anticonvulsant activity in words [2]: inactive as anticonvulsant

CCC(C)C(CC)C(=O)NCC(N)=O (centres unmarked) [valnoctyl glycinamide]
anticonvulsant activity in words [5]: good anticonvulsant activity in rodents

NC(=O)CN1C(=O)c2ccccc2C1=O [phthaloyl glycinamide, phthaloylglycinamide]
CL [3]: 9 L/h
MRT [3]: 4.6 ± 0.9 h
Vss [3]: 46 ± 13 L
Vβ [3]: 48 ± 13 L
t1/2 [3]: 3.4 ± 0.7 h
fe (fraction excreted unchanged in urine) ([3]; data from Salach et al 1994, 720 min): 7.0 ± 0.7%
sc Met, ED50 [4]: > 400 mg/kg
MES, ED50 [6]: 94 mg/kg
PI, MES (Protective index, ratio of TD50 to ED50) [6]: > 64
Neurotoxicity, TD50 [7]: > 600 mg/kg

CNCC(=O)O [sarcosine, N-methylglycine]
antagonism of strychnine-induced seizures [1]: antagonized

CC(=O)NC(C(=O)NCc1ccccc1)c1ccccc1 (racemic) [N-acetyl,N'-benzyl DL-phenyl glycinamide]
anticonvulsant activity in MES test [8]: marked anticonvulsant activity

CC(C)C(C(=O)NCC(N)=O)C(C)C [diisopropyl acety glycinamide]
anticonvulsant activity in words [5]: good anticonvulsant activity in rodents

CC(=O)NC(C)C(=O)NCc1ccccc1 (racemic) [N-acetyl,N'-benzyl DL-alaninamide]
anticonvulsant activity in MES test [8]: marked anticonvulsant activity

NCCCC(=O)O [GABA]
effect upon oral or systemic administration [9]: neither GABA nor glycine are effective upon oral or systemic administration
blood-brain barrier passage [9]: inability to cross the blood brain barrier

C[N+](C)(C)CC(=O)O [betaine, N,N,N-trimethyl glycine]
antagonism of strychnine-induced seizures [1]: antagonized
block of induction of convulsions [10]: block the induction of convulsions

O=C(O)CNC(=O)CNC(=O)OCc1ccccc1 [X, N-benzyloxycarbonyl glycylglycine] (Cbz-Gly-Gly-OH)
anticonvulsant activity in words [2]: inactive as anticonvulsant

CCC=C(CCC)C(=O)NCC(N)=O [N-2-enevalproyl glycinamide]
anticonvulsant activity in words [5]: good anticonvulsant activity in rodents

CC(=O)N[C@@H](C(=O)NCc1ccccc1)c1ccc[nH]1 (racemic) [(R,S)-2-acetamido-N-benzyl-2-pyrolacetamide]
anticonvulsant activity in MES test [8]: more potent than the analogous alanine and phenylglycine derivatives

NCC(=O)O [glycine]
effect upon oral or systemic administration [9]: neither GABA nor glycine are effective upon oral or systemic administration
blood-brain barrier passage [9]: does not readily cross the blood-brain barrier

NCC(=O)NCC(N)=O [II, Glycylglycinamide]
anticonvulsant activity [2]: did not show anticonvulsant activity

CC1(C)C(C(=O)NCC(N)=O)C1(C)C [tetramethylcyclopropylcarbonyl glycinamide]
anticonvulsant activity in words [5]: good anticonvulsant activity in rodents

NCC(=O)NCC(=O)O [I, Glycylglycine] (H-Gly-Gly-OH)
anticonvulsant activity [2]: did not show anticonvulsant activity
